Test results: PubChem BioAssay (NCI)
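Each compound was tested at five concentrations against cells in 96-well plates for 48 hours. GI50 = concentration required for 50% inhibition of growth. The concentration for full growth arrest is given as TGI.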

Assays:
Assay in all cases: inhibition of tumour cell growth, NCI panel, 48 h
786-0 renal = tested on: 786-0 renal
A498 renal = tested on: A498 renal
A549 NSCLC = tested on: A549 NSCLC
ACHN renal = tested on: ACHN renal
BT-549 breast = tested on: BT-549 breast
CAKI-1 renal = tested on: CAKI-1 renal
CCRF-CEM leukemia = tested on: CCRF-CEM leukemia
COLO 205 colon = tested on: COLO 205 colon
DU-145 prostate = tested on: DU-145 prostate
EKVX NSCLC = tested on: EKVX NSCLC
HCC-2998 colon = tested on: HCC-2998 colon
HCT-116 colon = tested on: HCT-116 colon
HCT-15 colon = tested on: HCT-15 colon
HL-60(TB) leukemia = tested on: HL-60(TB) leukemia
HOP-62 NSCLC = tested on: HOP-62 NSCLC
HOP-92 NSCLC = tested on: HOP-92 NSCLC
HS 578T breast = tested on: HS 578T breast
HT29 colon = tested on: HT29 colon
IGROV1 ovarian = tested on: IGROV1 ovarian
K-562 leukemia = tested on: K-562 leukemia
KM12 colon = tested on: KM12 colon
LOX IMVI melanoma = tested on: LOX IMVI melanoma
M14 melanoma = tested on: M14 melanoma
MALME-3M melanoma = tested on: MALME-3M melanoma
MCF7 breast = tested on: MCF7 breast
MDA-MB-231 breast = tested on: MDA-MB-231 breast
MDA-MB-435 = tested on: MDA-MB-435
MOLT-4 leukemia = tested on: MOLT-4 leukemia
NCI-H226 lung = tested on: NCI-H226 lung
NCI-H460 lung = tested on: NCI-H460 lung
NCI-H522 lung = tested on: NCI-H522 lung
NCI/ADR-RES ovarian = tested on: NCI/ADR-RES ovarian
OVCAR-3 ovarian = tested on: OVCAR-3 ovarian
OVCAR-4 ovarian = tested on: OVCAR-4 ovarian
OVCAR-5 ovarian = tested on: OVCAR-5 ovarian
OVCAR-8 ovarian = tested on: OVCAR-8 ovarian
PC-3 prostate = tested on: PC-3 prostate
RPMI-8226 leukemia = tested on: RPMI-8226 leukemia
RXF 393 renal = tested on: RXF 393 renal
SF-268 CNS = tested on: SF-268 CNS
SF-295 CNS = tested on: SF-295 CNS
SF-539 CNS = tested on: SF-539 CNS
SK-MEL-2 melanoma = tested on: SK-MEL-2 melanoma
SK-MEL-28 melanoma = tested on: SK-MEL-28 melanoma
SK-MEL-5 melanoma = tested on: SK-MEL-5 melanoma
SK-OV-3 ovarian = tested on: SK-OV-3 ovarian
SN12C renal = tested on: SN12C renal
SNB-19 CNS = tested on: SNB-19 CNS
SNB-75 CNS = tested on: SNB-75 CNS
SR leukemia = tested on: SR leukemia
SW-620 colon = tested on: SW-620 colon
T-47D breast = tested on: T-47D breast
TK-10 renal = tested on: TK-10 renal
U251 CNS = tested on: U251 CNS
UACC-257 melanoma = tested on: UACC-257 melanoma
UACC-62 melanoma = tested on: UACC-62 melanoma
UO-31 renal = tested on: UO-31 renal

## Cc1cc2nc3c4cc(Cl)ccc4n(CC(=S)NCCN(C)C)c3nc2cc1C
786-0 renal
  GI50: 1640 nM
  TGI: 3.2 µM
A498 renal
  GI50: 17.1 µM
  TGI: 31.3 µM
A549 NSCLC
  GI50: 1750 nM
  TGI: 3.52 µM
ACHN renal
  GI50: 1600 nM
  TGI: 2950 nM
BT-549 breast
  GI50: 13.3 µM
  TGI: 26.5 µM
CAKI-1 renal
  GI50: 2840 nM
  TGI: 14.4 µM
CCRF-CEM leukemia
  GI50: 2360 nM
  TGI: 6.17 µM
COLO 205 colon
  GI50: 1780 nM
  TGI: 3.49 µM
DU-145 prostate
  GI50: 2640 nM
  TGI: 6.99 µM
EKVX NSCLC
  GI50: 3.07 µM
  TGI: 11.8 µM
HCC-2998 colon
  GI50: 1660 nM
  TGI: 3.09 µM
HCT-116 colon
  GI50: 1730 nM
  TGI: 3.17 µM
HCT-15 colon
  GI50: 1750 nM
  TGI: 3.17 µM
HL-60(TB) leukemia
  GI50: 1870 nM
  TGI: 3.99 µM
HOP-62 NSCLC
  GI50: 6.68 µM
  TGI: 21.6 µM
HOP-92 NSCLC
  GI50: 1790 nM
  TGI: 8.06 µM
HS 578T breast
  GI50: 11 µM
  TGI: 30.8 µM
HT29 colon
  GI50: 1780 nM
  TGI: 3.36 µM
IGROV1 ovarian
  GI50: 3.53 µM
  TGI: 15.6 µM
K-562 leukemia
  GI50: 2070 nM
  TGI: 5.21 µM
KM12 colon
  GI50: 2730 nM
  TGI: 8.29 µM
LOX IMVI melanoma
  GI50: 241 nM
  TGI: 1770 nM
M14 melanoma
  GI50: 1640 nM
  TGI: 3.12 µM
MALME-3M melanoma
  GI50: 1860 nM
  TGI: 4.16 µM
MCF7 breast
  GI50: 1190 nM
  TGI: 2510 nM
MDA-MB-231 breast
  GI50: 1820 nM
  TGI: 3.63 µM
MDA-MB-435
  GI50: 1890 nM
  TGI: 3.53 µM
MOLT-4 leukemia
  GI50: 1970 nM
  TGI: 4.29 µM
NCI-H226 lung
  GI50: 10.5 µM
  TGI: 24.9 µM
NCI-H460 lung
  GI50: 1810 nM
  TGI: 3.35 µM
NCI-H522 lung
  GI50: 1720 nM
  TGI: 3.47 µM
NCI/ADR-RES ovarian
  GI50: 1870 nM
  TGI: 3.7 µM
OVCAR-3 ovarian
  GI50: 2050 nM
  TGI: 4.67 µM
OVCAR-4 ovarian
  GI50: 2810 nM
  TGI: 10.2 µM
OVCAR-5 ovarian
  GI50: 4.87 µM
  TGI: 17.6 µM
OVCAR-8 ovarian
  GI50: 1750 nM
  TGI: 3.39 µM
PC-3 prostate
  GI50: 1830 nM
  TGI: 4.84 µM
RPMI-8226 leukemia
  GI50: 2750 nM
  TGI: 7.49 µM
RXF 393 renal
  GI50: 3.56 µM
  TGI: 14.4 µM
SF-268 CNS
  GI50: 5.56 µM
  TGI: 21.1 µM
SF-295 CNS
  GI50: 5.56 µM
  TGI: 18.2 µM
SF-539 CNS
  GI50: 3.33 µM
  TGI: 12.2 µM
SK-MEL-2 melanoma
  GI50: 14.2 µM
  TGI: 27.8 µM
SK-MEL-28 melanoma
  GI50: 1810 nM
  TGI: 3.43 µM
SK-MEL-5 melanoma
  GI50: 4.09 µM
  TGI: 14 µM
SK-OV-3 ovarian
  GI50: 11.8 µM
  TGI: 24.1 µM
SN12C renal
  GI50: 2070 nM
  TGI: 4.97 µM
SNB-19 CNS
  GI50: 5.87 µM
  TGI: 19.9 µM
SNB-75 CNS
  GI50: 11.2 µM
  TGI: 24.7 µM
SR leukemia
  GI50: 2460 nM
  TGI: 6.23 µM
SW-620 colon
  GI50: 1680 nM
  TGI: 3.15 µM
T-47D breast
  GI50: 5.11 µM
  TGI: 20.2 µM
TK-10 renal
  GI50: 11.4 µM
  TGI: 24.2 µM
U251 CNS
  GI50: 1710 nM
  TGI: 3.17 µM
UACC-257 melanoma
  GI50: 3.29 µM
  TGI: 11.9 µM
UACC-62 melanoma
  GI50: 1810 nM
  TGI: 3.62 µM
UO-31 renal
  GI50: 1070 nM
  TGI: 2530 nM
